Test system: MV-4-11 cells
Experiment: Gene expression microarray analysis (Affymetrix PrimeView) and GSEA
Type: cell-based, human
Parameters: RFU PODN (11730768_x_at) / Fold change /veh PODN (11730768_x_at) / RFU LINC00158 (11744669_a_at) / Fold change /veh LINC00158 (11744669_a_at) / RFU DUSP10 (11751237_a_at) / Fold change /veh DUSP10 (11751237_a_at) / RFU ID3 (11757404_x_at) / Fold change /veh ID3 (11757404_x_at) / RFU PLEKHG5 (11737974_s_at) / Fold change /veh PLEKHG5 (11737974_s_at) / RFU LRRC4B (11730491_at) / Fold change /veh LRRC4B (11730491_at) / RFU GIMAP4 (11747438_a_at) / Fold change /veh GIMAP4 (11747438_a_at) / RFU KRT8 (11758183_x_at) / Fold change /veh KRT8 (11758183_x_at) / RFU CNN1 (11734310_a_at) / Fold change /veh CNN1 (11734310_a_at) / RFU VPS37D (11726825_at) / Fold change /veh VPS37D (11726825_at) / RFU C10orf10 (11716522_x_at) / Fold change /veh C10orf10 (11716522_x_at) / RFU KIR2DL2 /// KIR2DL4 /// KIR2DL5A /// KIR2DL5B /// KIR2DS1 /// KIR2DS2 /// KIR2DS3 /// KIR2DS4 /// KIR3DL3 /// KIR3DL3 /// KIR3DS1 (11738374_at) / Fold change /veh KIR2DL2 /// KIR2DL4 /// KIR2DL5A /// KIR2DL5B /// KIR2DS1 /// KIR2DS2 /// KIR2DS3 /// KIR2DS4 /// KIR3DL3 /// KIR3DL3 /// KIR3DS1 (11738374_at) / RFU C1QL1 (11718748_at) / Fold change /veh C1QL1 (11718748_at) / RFU TMPRSS4 (11747572_a_at) / Fold change /veh TMPRSS4 (11747572_a_at) / RFU HAMP (11756126_x_at) / Fold change /veh HAMP (11756126_x_at) / RFU RNFT2 (11725882_a_at) / Fold change /veh RNFT2 (11725882_a_at) / RFU NR4A2 (11747474_a_at) / Fold change /veh NR4A2 (11747474_a_at) / RFU ABCC12 (11746883_a_at) / Fold change /veh ABCC12 (11746883_a_at) / RFU TMEM136 (11760407_x_at) / Fold change /veh TMEM136 (11760407_x_at) / RFU CLDN22 /// WWC2 (11732394_at) / Fold change /veh CLDN22 /// WWC2 (11732394_at) / RFU HLA-DPB1 (11760878_x_at) / Fold change /veh HLA-DPB1 (11760878_x_at) / RFU SPINT1 (11716480_a_at) / Fold change /veh SPINT1 (11716480_a_at) / RFU GAP43 (11754022_s_at) / Fold change /veh GAP43 (11754022_s_at) / RFU A4GNT (11735810_at) / Fold change /veh A4GNT (11735810_at) / RFU PRB3 (11715151_x_at) / Fold change /veh PRB3 (11715151_x_at) / RFU TUBB4B (11761932_at) / Fold change /veh TUBB4B (11761932_at) / RFU CAPN14 (11732068_a_at) / Fold change /veh CAPN14 (11732068_a_at) / RFU TMCC2 (11721928_a_at) / Fold change /veh TMCC2 (11721928_a_at) / RFU IRGQ (11745062_a_at) / Fold change /veh IRGQ (11745062_a_at) / RFU FAM174B (11720279_a_at) / Fold change /veh FAM174B (11720279_a_at) / RFU TMPRSS4 (11748680_a_at) / Fold change /veh TMPRSS4 (11748680_a_at) / RFU FAM212B (11763350_a_at) / Fold change /veh FAM212B (11763350_a_at) / RFU PLEKHG5 (11743358_a_at) / Fold change /veh PLEKHG5 (11743358_a_at) / RFU ZSCAN30 (11745921_a_at) / Fold change /veh ZSCAN30 (11745921_a_at) / RFU CMKLR1 (11741424_a_at) / Fold change /veh CMKLR1 (11741424_a_at) / RFU LOC101060620 /// MAPK8IP1 (11723275_at) / Fold change /veh LOC101060620 /// MAPK8IP1 (11723275_at) / RFU SPTSSB (11747773_x_at) / Fold change /veh SPTSSB (11747773_x_at) / RFU PRSS12 (11739890_at) / Fold change /veh PRSS12 (11739890_at) / RFU BIN1 (11741810_x_at) / Fold change /veh BIN1 (11741810_x_at) / RFU WNT11 (11732464_a_at) / Fold change /veh WNT11 (11732464_a_at) / RFU C10orf10 (11716521_a_at) / Fold change /veh C10orf10 (11716521_a_at) / RFU C5orf56 (11738089_at) / Fold change /veh C5orf56 (11738089_at) / RFU CYB561 (11721691_x_at) / Fold change /veh CYB561 (11721691_x_at) / RFU ANKRD19P (11752326_a_at) / Fold change /veh ANKRD19P (11752326_a_at) / RFU OR2T12 /// OR2T33 /// OR2T8 (11738714_s_at) / Fold change /veh OR2T12 /// OR2T33 /// OR2T8 (11738714_s_at) / RFU VCAN (11748164_a_at) / Fold change /veh VCAN (11748164_a_at) / RFU JSRP1 (11732532_at) / Fold change /veh JSRP1 (11732532_at) / RFU KRTAP10-11 (11738290_x_at) / Fold change /veh KRTAP10-11 (11738290_x_at) / RFU MYO3A (11730013_a_at) / Fold change /veh MYO3A (11730013_a_at) / RFU EBF3 (11725865_a_at) / Fold change /veh EBF3 (11725865_a_at) / RFU CAMK2N1 (11719241_x_at) / Fold change /veh CAMK2N1 (11719241_x_at) / RFU C5orf56 (11738088_a_at) / Fold change /veh C5orf56 (11738088_a_at) / RFU OLFML3 (11715873_a_at) / Fold change /veh OLFML3 (11715873_a_at) / RFU LOC100653217 /// NTM (11731650_a_at) / Fold change /veh LOC100653217 /// NTM (11731650_a_at) / RFU MAPK11 (11762145_a_at) / Fold change /veh MAPK11 (11762145_a_at) / RFU FIZ1 (11724087_x_at) / Fold change /veh FIZ1 (11724087_x_at) / RFU OASL (11726364_x_at) / Fold change /veh OASL (11726364_x_at) / RFU SOX15 (11748057_x_at) / Fold change /veh SOX15 (11748057_x_at) / RFU CD79A (11719716_a_at) / Fold change /veh CD79A (11719716_a_at) / RFU HIST1H1D (11736915_at) / Fold change /veh HIST1H1D (11736915_at) / RFU CASKIN2 (11723855_a_at) / Fold change /veh CASKIN2 (11723855_a_at) / RFU LOC730098 (11760151_x_at) / Fold change /veh LOC730098 (11760151_x_at) / RFU OR4N2 (11742367_at) / Fold change /veh OR4N2 (11742367_at) / RFU PRRT2 (11749266_a_at) / Fold change /veh PRRT2 (11749266_a_at) / RFU SNX32 (11753110_a_at) / Fold change /veh SNX32 (11753110_a_at) / RFU CDHR5 (11726645_a_at) / Fold change /veh CDHR5 (11726645_a_at) / RFU RCAN1 (11760418_a_at) / Fold change /veh RCAN1 (11760418_a_at) / RFU FAM167A (11723789_a_at) / Fold change /veh FAM167A (11723789_a_at) / RFU FAM26E (11764081_at) / Fold change /veh FAM26E (11764081_at) / RFU ISYNA1 (11749810_s_at) / Fold change /veh ISYNA1 (11749810_s_at) / RFU ACY1 (11761880_at) / Fold change /veh ACY1 (11761880_at) / RFU 11764098_at / Fold change /veh 11764098_at / RFU SAMD14 (11745864_x_at) / Fold change /veh SAMD14 (11745864_x_at) / RFU NPB (11741838_a_at) / Fold change /veh NPB (11741838_a_at) / RFU TMPRSS6 (11731388_a_at) / Fold change /veh TMPRSS6 (11731388_a_at) / RFU KRTAP10-2 (11738614_at) / Fold change /veh KRTAP10-2 (11738614_at) / RFU ARHGAP8 /// PRR5-ARHGAP8 (11727945_x_at) / Fold change /veh ARHGAP8 /// PRR5-ARHGAP8 (11727945_x_at) / RFU KRTAP5-7 /// NADSYN1 (11734609_at) / Fold change /veh KRTAP5-7 /// NADSYN1 (11734609_at) / RFU RASL12 (11751679_a_at) / Fold change /veh RASL12 (11751679_a_at) / RFU CDKN2B (11736163_a_at) / Fold change /veh CDKN2B (11736163_a_at) / RFU PRF1 (11729649_at) / Fold change /veh PRF1 (11729649_at) / RFU, ZNF638 /// ZNF638-IT1 / Fold change vs veh, ZNF638 /// ZNF638-IT1 / RFU, PANK3 / Fold change vs veh, PANK3 / RFU, SH3YL1 / Fold change vs veh, SH3YL1 / RFU, ZEB2 / Fold change vs veh, ZEB2 / RFU, NRIP1 / Fold change vs veh, NRIP1 / RFU, PTTG1IP / Fold change vs veh, PTTG1IP / RFU, CAPN2 / Fold change vs veh, CAPN2 / RFU, MED14 / Fold change vs veh, MED14 / RFU, SNORA58 / Fold change vs veh, SNORA58 / RFU, C1orf63 / Fold change vs veh, C1orf63 / RFU, LRRFIP1 / Fold change vs veh, LRRFIP1 / RFU, NDUFAF7 / Fold change vs veh, NDUFAF7 / RFU, SLC12A2 / Fold change vs veh, SLC12A2 / RFU, IBTK / Fold change vs veh, IBTK / RFU, ESF1 / Fold change vs veh, ESF1 / Fold change vs veh, TMEM50B / RFU, TAOK1 / Fold change vs veh, TAOK1 / RFU, ACBD3 / Fold change vs veh, ACBD3 / RFU, TMA16 / Fold change vs veh, TMA16 / RFU, RWDD3 / Fold change vs veh, RWDD3 / RFU, BCAT1 / Fold change vs veh, BCAT1 / RFU, EDEM3 / Fold change vs veh, EDEM3 / RFU, TMEM33 / Fold change vs veh, TMEM33 / RFU, WDR75 / Fold change vs veh, WDR75 / RFU, AHCTF1 / Fold change vs veh, AHCTF1 / RFU, TFRC / Fold change vs veh, TFRC / RFU, ZDHHC17 / Fold change vs veh, ZDHHC17 / RFU, NOM1 / Fold change vs veh, NOM1 / RFU, ARL8B / Fold change vs veh, ARL8B / RFU, ZBTB11 / Fold change vs veh, ZBTB11 / RFU, TAMM41 / Fold change vs veh, TAMM41 / RFU, KIAA1704 /// LOC100996395 / Fold change vs veh, KIAA1704 /// LOC100996395 / RFU, ING1 / Fold change vs veh, ING1 / RFU, TRMT61B / Fold change vs veh, TRMT61B / RFU, FUBP3 / Fold change vs veh, FUBP3 / RFU, TP53 / Fold change vs veh, TP53 / RFU, TNKS2 / Fold change vs veh, TNKS2 / RFU, ZFP14 / Fold change vs veh, ZFP14 / RFU, ACTR2 / Fold change vs veh, ACTR2 / RFU, PPP3R1 / Fold change vs veh, PPP3R1 / RFU, PIK3R1 / Fold change vs veh, PIK3R1 / RFU, HNRNPA1 / Fold change vs veh, HNRNPA1 / RFU, RNF170 / Fold change vs veh, RNF170 / RFU, ZNF28 / Fold change vs veh, ZNF28 / RFU, RNGTT / Fold change vs veh, RNGTT / RFU, OGT / Fold change vs veh, OGT / RFU, BRD1 / Fold change vs veh, BRD1 / RFU, MARS / Fold change vs veh, MARS / RFU, ZNF655 / Fold change vs veh, ZNF655 / RFU, FAHD1 / Fold change vs veh, FAHD1 / RFU, BDP1 / Fold change vs veh, BDP1 / RFU, LRRCC1 / Fold change vs veh, LRRCC1 / RFU, ARID1A / Fold change vs veh, ARID1A / RFU, ZNF146 / Fold change vs veh, ZNF146 / RFU, ZNF330 / Fold change vs veh, ZNF330 / RFU, GPN3 / Fold change vs veh, GPN3 / RFU, C9orf123 / Fold change vs veh, C9orf123 / RFU, N4BP2L2 / Fold change vs veh, N4BP2L2 / RFU, ARFIP1 / Fold change vs veh, ARFIP1 / RFU, FAM179B / Fold change vs veh, FAM179B / RFU, BCL10 / Fold change vs veh, BCL10 / RFU, UHRF1BP1L / Fold change vs veh, UHRF1BP1L / RFU, BET1 / Fold change vs veh, BET1 / RFU, CNOT2 / Fold change vs veh, CNOT2 / RFU, ZNF268 / Fold change vs veh, ZNF268 / Fold change vs veh, ZNF507 / RFU, DGCR2 / Fold change vs veh, DGCR2 / RFU, WDSUB1 / Fold change vs veh, WDSUB1 / Fold change vs veh, HSP90B1 /// MIR3652 / RFU, ADSS / Fold change vs veh, ADSS / RFU, GK / Fold change vs veh, GK / RFU, ZNF148 / Fold change vs veh, ZNF148 / RFU, TAF9 / Fold change vs veh, TAF9 / RFU, SLC1A5 / Fold change vs veh, SLC1A5 / RFU, SLMO2 / Fold change vs veh, SLMO2 / RFU, ABCC4 / Fold change vs veh, ABCC4 / RFU, LOC101060439 /// RAP1B / Fold change vs veh, LOC101060439 /// RAP1B / RFU, RFX7 / Fold change vs veh, RFX7 / RFU, GTPBP10 / Fold change vs veh, GTPBP10 / RFU, CNEP1R1 / Fold change vs veh, CNEP1R1 / RFU, BIVM-ERCC5 /// ERCC5 / Fold change vs veh, BIVM-ERCC5 /// ERCC5 / RFU, ILF3 / Fold change vs veh, ILF3 / RFU 11762660_at / Fold change /veh 11762660_at / RFU VCAN (11757783_s_at) / Fold change /veh VCAN (11757783_s_at) / RFU DDX43 (11728927_at) / Fold change /veh DDX43 (11728927_at) / RFU KRT8 (11758188_x_at) / Fold change /veh KRT8 (11758188_x_at) / RFU NKD1 (11759106_at) / Fold change /veh NKD1 (11759106_at) / RFU SRD5A1 (11742802_a_at) / Fold change /veh SRD5A1 (11742802_a_at) / RFU TPSAB1 /// TPSB2 (11721975_s_at) / Fold change /veh TPSAB1 /// TPSB2 (11721975_s_at) / RFU GSTM3 (11746129_a_at) / Fold change /veh GSTM3 (11746129_a_at) / RFU IL23R (11737362_x_at) / Fold change /veh IL23R (11737362_x_at) / RFU TMEM51 (11727254_a_at) / Fold change /veh TMEM51 (11727254_a_at) / RFU PIWIL2 (11732686_x_at) / Fold change /veh PIWIL2 (11732686_x_at) / RFU ORM1 (11744905_x_at) / Fold change /veh ORM1 (11744905_x_at) / RFU CCDC152 (11743942_at) / Fold change /veh CCDC152 (11743942_at) / RFU ECM1 (11717891_a_at) / Fold change /veh ECM1 (11717891_a_at) / RFU IL23R (11748794_a_at) / Fold change /veh IL23R (11748794_a_at) / RFU TNFAIP8L3 (11732012_x_at) / Fold change /veh TNFAIP8L3 (11732012_x_at) / RFU MBOAT4 (11741988_at) / Fold change /veh MBOAT4 (11741988_at) / RFU 11764193_at / Fold change /veh 11764193_at / RFU TMEM53 (11763286_at) / Fold change /veh TMEM53 (11763286_at) / RFU MAGEB2 (11727129_at) / Fold change /veh MAGEB2 (11727129_at) / RFU TMEM200A (11744735_a_at) / Fold change /veh TMEM200A (11744735_a_at) / RFU CCDC152 (11751479_a_at) / Fold change /veh CCDC152 (11751479_a_at) / RFU FAM211A (11726209_a_at) / Fold change /veh FAM211A (11726209_a_at) / RFU RGS16 (11746705_a_at) / Fold change /veh RGS16 (11746705_a_at) / RFU VCAN (11755009_s_at) / Fold change /veh VCAN (11755009_s_at) / RFU RHOB (11743442_s_at) / Fold change /veh RHOB (11743442_s_at) / RFU RGS16 (11720943_a_at) / Fold change /veh RGS16 (11720943_a_at) / RFU RGS16 (11720944_at) / Fold change /veh RGS16 (11720944_at) / RFU, VPS4B / Fold change vs veh, VPS4B / RFU, CREB1 / Fold change vs veh, CREB1 / RFU, DNAJC13 / Fold change vs veh, DNAJC13 / RFU, GNAQ / Fold change vs veh, GNAQ / RFU, CDK5R1 / Fold change vs veh, CDK5R1 / RFU, ZRANB3 / Fold change vs veh, ZRANB3 / RFU, CUL4A / Fold change vs veh, CUL4A / RFU, CCNY / Fold change vs veh, CCNY / RFU, UFL1 / Fold change vs veh, UFL1 / RFU, COG3 / Fold change vs veh, COG3 / RFU, DIAPH2 / Fold change vs veh, DIAPH2 / RFU, SKA2 / Fold change vs veh, SKA2 / RFU, AFF3 / Fold change vs veh, AFF3 / RFU, LMF1 / Fold change vs veh, LMF1 / RFU, IPO11 / Fold change vs veh, IPO11 / RFU, DFFB / Fold change vs veh, DFFB / RFU, FOXP1 / Fold change vs veh, FOXP1 / RFU, CARD8 / Fold change vs veh, CARD8 / RFU, STRN3 / Fold change vs veh, STRN3 / RFU, ADK / Fold change vs veh, ADK / RFU, RASSF2 / Fold change vs veh, RASSF2 / RFU, WIPF1 / Fold change vs veh, WIPF1 / RFU, LARP1B / Fold change vs veh, LARP1B / RFU, RASA1 / Fold change vs veh, RASA1 / RFU, RB1 / Fold change vs veh, RB1 / RFU, PPFIA1 / Fold change vs veh, PPFIA1 / RFU, MAT2A / Fold change vs veh, MAT2A / RFU, CCT5 / Fold change vs veh, CCT5 / RFU, WDR92 / Fold change vs veh, WDR92 / RFU, CUX1 / Fold change vs veh, CUX1 / RFU, TTC7A / Fold change vs veh, TTC7A / RFU, TMEM135 / Fold change vs veh, TMEM135 / RFU, DEPTOR / Fold change vs veh, DEPTOR / RFU, CPM / Fold change vs veh, CPM / RFU, DNAJB6 / Fold change vs veh, DNAJB6 / RFU, CACNA2D3 / Fold change vs veh, CACNA2D3 / RFU, DTX4 / Fold change vs veh, DTX4 / RFU, TFCP2 / Fold change vs veh, TFCP2 / RFU, GMCL1 /// GMCL1P1 / Fold change vs veh, GMCL1 /// GMCL1P1 / RFU, AEBP2 / Fold change vs veh, AEBP2 / RFU, SNHG1 /// SNORD22 /// SNORD25 /// SNORD26 /// SNORD27 /// SNORD28 /// SNORD29 /// SNORD31 / Fold change vs veh, SNHG1 /// SNORD22 /// SNORD25 /// SNORD26 /// SNORD27 /// SNORD28 /// SNORD29 /// SNORD31 / Fold change (Aza/veh), C12orf56 (ProbeSet 11735607_a_at) / Fold change (ACY-1035/veh), C12orf56 (ProbeSet 11735607_a_at) / Fold change (Aza/veh), FGFR1OP (ProbeSet 11751329_s_at) / Fold change (ACY-1035/veh), FGFR1OP (ProbeSet 11751329_s_at) / Fold change (Aza/veh), VPS36 (ProbeSet 11739960_a_at) / Fold change (ACY-1035/veh), VPS36 (ProbeSet 11739960_a_at) / RFU SYPL1 (11715823_x_at) / Fold change /veh SYPL1 (11715823_x_at) / RFU IGFBP7 (11715501_s_at) / Fold change /veh IGFBP7 (11715501_s_at) / RFU REEP3 (11722064_at) / Fold change /veh REEP3 (11722064_at) / RFU IGLL1 (11728026_x_at) / Fold change /veh IGLL1 (11728026_x_at): dose or concentration left out as unconfirmed
Settings: ProbeSet 11743362_s_at; LIST B

Compound: Nc1ccc(-c2cccs2)cc1NC(=O)c1ccc2c(c1)cc(C1CC1)n2CCN1CCOCC1 [ACY-1035]
- Fold change vs veh, ADSS: 0.95

Source: publication PMC5218480 (PLoS ONE, 2017)
